Several values for one entry are separate records, joined by “and”; a condition that tells them apart may be missing. Identical values can stand only once. Entries after “also recorded” stand apart in the source; their conditions may differ.
Tests used:
[1] = target: Aptamer 21; assay: Surface plasmon resonance (SPR) binding to Aptamer 21; details: listed as ARK-139
Text: (§1) Surface plasmon resonance (SPR) may be used to screen ligands and hook and click constructs for binding to a target RNA of interest. SPR is especially useful for monitoring biomolecular interactions in real time. Typically, target species and unrelated control are immobilized to a sensor chip, then analytes (compounds/fragments) are flowed over the surface. Binding of the compound to target species results in increase of SPR signal (association phase). Washing away bound compound with buffer results in a decrease of SPR signal (dissociation phase). Fitting of sensorgrams recorded at different compound concentrations is performed to an appropriate interaction model. The method allows extraction of kinetic parameters (ka, kd→KD). Requirements/limitations include that the ka/kd values be in reasonable ranges; and the target size must not be too large (<100 kDa). It is an excellent method to screen fragments and profile or validate hits. BC4000 may be used for primary screening (up to 4,000 data pts/week). Biacore T200 is suitable for hit profiling and validation.
In the PEARL-seq context, SPR allows monitoring binding of “hooks” to DNA/RNA aptamers. The target species is immobilized to sensor chip, analytes (i.e. hooks) are flowed over surface (association phase), DNA/RNA aptamer is flowed over surface (plateau phase), competitor compound is washed over surface (dissociation phase), thus yielding binding data.
Experiments were performed on a MASS-2 (Sierra Sensors) at 25° C. A high capacity amine chip was equilibrated with PBS. The chip was conditioned with alternating injections of 10 mM HCl and 10 mM NaOH in 1 M NaCl. The carboxymethylated dextran of the surface of the amine chip was activated for 7 minutes at a flow rate of 10 μL/min using a 1:1 volume ratio of 0.4 M 1-ethyl-3-(3-dimethylaminopropyl) carbodiimide (Sierra) and 0.1 M N-hydroxysuccinimide (Sierra). Neutravidin (70 μg/mL, Thermofisher) was injected over the activated surface for 10 minutes at a flow rate of 10 μl/min. Excess activated groups were blocked by an injection of 1 M ethanolamine, pH 8.5 (Sierra) for 7 minutes at a flow rate of 10 μl/min. A final injection of 10 mM NaOH in 1 M NaCl for 7 minutes at 10 μl/min was used to remove any unbound material to the chip. The immobilization reaction typically yielded approximately 12,000 resonance units (RU) of neutravidin. At least one spot in a channel was not injected with RNA and was used as a background control. Unrelated RNA was also used as a background control.
A 1 μM sample of biotin-aptamer 21 was prepared in RNAse free water, heated to 95° C. for 3 minutes, cooled on ice for 4 minutes, diluted with an equal volume 2× folding buffer (40 mM Tris-HCl, pH 8.0, 6 mM MgCl2, 200 mM KCl), and incubated at 37° C. for 30 minutes. The final concentration of RNA was 0.5 μM.
The MASS-2 was primed 2 times with 20 mM Tris-HCl, pH 8.0, 3 mM MgCl2, 100 mM KCl (Capture Buffer). RNA was injected over the neutravidin surface for 7 minutes at a flow rate of 10 μl/min. Capture levels typically reached approximately 3500-4500 of resonance units of aptamer 21.
Compounds were diluted 2-fold in 100% DMSO at a starting concentration of 500 μM.
The MASS-2 was primed 2 times with 20 mM Tris-HCl, pH 8.0, 3 mM MgCl2, 100 mM KCl, 1% DMSO (running buffer). Prior to testing compounds 3 injections of running buffer were used to equilibrate the sensor surface. […]

[2] = system: Aptamer 21-E; assay: SPR binding to mutant Aptamer 21-E; details: data not shown; listed as ARK-139
Text: as §1
Experiments were performed on a MASS-2 (Sierra Sensors) at 25° C. A high capacity amine chip was equilibrated with PBS. The chip was conditioned with alternating injections of 10 mM HCl and 10 mM NaOH in 1 M NaCl. […]

Kd ([1]; binding to Aptamer 21, read-out: calculated KD by SPR): 568 nM and 420 nM | binding to Aptamer 21 by SPR [1]: binds; also recorded: SPR-active | binding to Aptamer 21-E by SPR [2]: not to bind; also recorded: did not bind
Structure (SMILES): COC(=O)C1=C(COCc2cn(CCOCCOCCO)nn2)NC(c2ccncc2)=NC1c1ccc(F)cc1Cl (racemic) [I-1]
